The record followed here is patent US20230174584A1, “Antibiotic Compounds” (priority 2019, published 2023).

Experiment [1] deals with S. aureus 880 (BR-VRSA), NR-49120. As to the kind of experiment: MIC assay. The following applies: S. aureus 880, NR-49120 VRSA. The format is cell-based, Staphylococcus aureus. As to the method:
(§1) The antibacterial activity of the compounds was tested against a panel of bacteria, including Gram-positive bacteria (S. aureus ATCC29213, S. aureus USA300, S. aureus LIM-2, NR-45881, S. aureus HIP13419, NR-46413, E. faecium E155, E. faecium E7314, E. faecium E980, E. faecalis E1246, E. faecalis E7406 and S. pneumonia 153). The antibacterial activity of the compounds was further tested against S. aureus NY-155, NR-46236, S. aureus HIP12864, NR-46074, S. aureus 880 (BR-VRSA), NR-49120, E. faecalis E1246, E. faecalis E7604, as well as some Gram-negative bacteria (Escherichia coli and Klebsiella pneumoniae). Minimum inhibitory concentrations (MICs) in μg/mL were performed according to the CLSI guidelines. From glycerol stocks, bacterial strains were cultured on blood agar plates and incubated at 37° C. for 18 h. A single colony was transferred to tryptic soy broth (TSB) with 0.002% polysorbate 80 (p80). For the Enterococcus, VISA and VRSA strains, the cultures were grown at 37° C. until the optical density of the suspension reached a level equivalent to the 0.5 McFarland standard. The bacterial suspensions were diluted in TSB with 0.002% p80 to reach a bacterial cell density of 10^6 CFU/mL. In case of the other (vancomycin-sensitive) S. aureus strains, the direct colony suspension method was used. For these strains, after transfer of the colonies to TSB with 0.002% p80, they were immediately diluted to 10^6 CFU/mL, instead of incubated prior to this dilution. In the case of S. pneumonia, direct colony suspension was used by immediately suspending multiple colonies from fresh blood agar plates in TSB+0.002% p80 to an OD600 of 0.5 and subsequent dilution to 10^6 CFU mL^−1 in TSB+0.002% p80+5% lysed horse blood. Antibiotic dilutions for this strains were also made in TSB+0.002% p80+5% lysed horse blood. Both agar and microplates containing S. pneumonia were incubated at 37° C. with 5% CO2 for 24 h with constant shaking (600 rpm). […] The cultures were grown to exponential phase (OD600=0.5) at 37° C. […] In polypropylene 96-well microtiter plates, test compounds were added in biological triplicates and serial diluted 2-fold by transfer and mixing from one well to the next to achieve a final volume of 50 μL per well. An equal volume of bacterial suspension (10^6 CFU mL^−1) was added to the wells. The plates were sealed with breathable membranes and incubated at 37° C. for 24 h with constant shaking (600 rpm). In polypropylene microtiter plates, 100 μL of the test compounds was added to the first row in biological triplicates, and 50 μL of media was added to the other wells. The compounds were subjected to serial dilution by transfer and mixing of 50 μL from one well to the next. Subsequently, 50 μL of bacterial suspension (10^6 CFU/mL) was added to the wells. The plates were sealed with breathable membranes and incubated at 37° C. for 24 h with constant shaking (600 rpm). Positive growth control consisted of wells with bacterial suspension and without antibiotic. Negative growth control consisted of solely media without bacterial suspension or antibiotic. The MICs were determined from the median of a minimum of triplicates.

Experiment [2] concerns S. aureus ATCC29213. Description: MIC assay. The format is cell-based, Staphylococcus aureus. The following applies: S. aureus ATCC29213 MSSA. As to the method: as §1
Experiment [3] concerns S. aureus HIP12864, NR-46074. As to the kind of experiment: MIC assay. The experiment is classed as cell-based, Staphylococcus aureus. Particulars: S. aureus HIP12864, NR-46074 VISA. As to the method:
as §1

Experiment [4] relates to S. aureus LIM-2, NR-25881. As to the kind of experiment: MIC assay. Particulars: S. aureus LIM-2, NR-25881 VISA. The format is cell-based, Staphylococcus aureus. The protocol: as §1
Experiment [5] concerns S. aureus NY-155, NR-46236. As to the kind of experiment: MIC assay. The experiment is classed as cell-based, Staphylococcus aureus. Particulars: S. aureus NY-155, NR-46236 MRSA. As to the method: as §1
Experiment [6] concerns S. aureus HIP13419, NR-46413. As to the kind of experiment: microbe, parasite or virus in culture. The following applies: S. aureus HIP13419, NR-46413 VRSA. The experiment is classed as cell-based, Staphylococcus aureus. As to the method: as §1
Experiment [7] has as its system S. aureus USA300. Description: microbe, parasite or virus in culture. The experiment is classed as cell-based, Staphylococcus aureus. As to the method: as §1
Experiment [8] relates to E. faecium E980. Description: MIC assay. The format is cell-based, Enterococcus faecium. Particulars: E. faecium E980 VSE. As to the method: as §1
Experiment [9] has as its system E. faecium E155. As to the kind of experiment: microbe, parasite or virus in culture. The following applies: E. faecium E155 VRE (VanA). The experiment is classed as cell-based, Enterococcus faecium. The protocol: as §1
Experiment [10] relates to E. faecium E7314. As to the kind of experiment: microbe, parasite or virus in culture. The format is cell-based, Enterococcus faecium. Particulars: E. faecium E7314 VRE (VanB). The protocol:
as §1

Experiment [11] relates to E. faecalis E1246. Description: MIC assay. The format is cell-based, Enterococcus faecalis. The protocol: as §1
The subject of experiment [12] is E. faecalis E7406. Description: microbe, parasite or virus in culture. The experiment is classed as cell-based, Enterococcus faecalis. The following applies: E. faecalis E7406 VRE (VanB). The protocol: as §1
In experiment [13] the test system is E. faecalis E7604. Description: microbe, parasite or virus in culture. The experiment is classed as cell-based, Enterococcus faecalis. The following applies: E. faecalis E7604 VRE (vanB). The protocol: as §1
In experiment [14] the test system is S. pneumoniae 153. Description: MIC assay. The following applies: S. pneumoniae 153; TSB+0.002% p80+5% lysed horse blood. The format is cell-based. As to the method: as §1
Experiment [15] relates to MRSA USA300. As to the kind of experiment: MIC assay in the presence of sheep serum. The format is cell-based, Staphylococcus aureus. The following applies: MRSA USA300, TSB + 0.002% p80 + 50% sheep serum. The protocol:
as §1
The activity of the compounds was further assessed against MRSA USA300 strain in the presence of sheep) serum in another MIC assay. The cultures that grew in the presence of serum used TSB+0.002% P80+50% sheep serum as growth media, as opposed to normal MICs done in only TSB+0.002% P80.

Where [16] appears, read: E. faecalis E1246 VRE (VanA), Table 7.
Where [17] appears, read: E. faecalis E1246 VRE (vanA), Table 9.

In brackets after ≈: the same amount, converted by molar mass.

Take `CCCCCCCCCCCCNC(N)=Nc1ccc(CN[C@@]2(C)C[C@H](O[C@H]3[C@H](Oc4c5cc6cc4Oc4ccc(cc4Cl)[C@@H](O)[C@@H](NC(=O)[C@@H](CC(C)C)NC)C(=O)N[C@@H](CC(N)=O)C(=O)N[C@H]6C(=O)N[C@H]4C(=O)N[C@H](C(=O)N[C@H](C(=O)O)c6cc(O)cc(O)c6-c6cc4ccc6O)[C@H](O)c4ccc(c(Cl)c4)O5)O[C@H](CO)[C@@H](O)[C@@H]3O)O[C@@H](C)[C@H]2O)cc1` [Compound 9]: the MIC in [1] amounted to 0.25 µg/mL (≈ 0.142 µM); in experiment [2] it was 0.125 µg/mL (≈ 0.0708 µM); in experiment [3] it was 0.25 µg/mL (≈ 0.142 µM); in experiment [4], 0.5 µg/mL (≈ 0.283 µM); in experiment [5], 0.5 µg/mL (≈ 0.283 µM); in [6], 0.125 µg/mL (≈ 0.0708 µM). Further, the MIC in [7] (MRSA USA300, TSB + 0.002% p80) was determined as 0.5 µg/mL; in experiment [7] (S. aureus USA300 MRSA), 0.5 µg/mL (≈ 0.283 µM); in experiment [8], 0.125 µg/mL (≈ 0.0708 µM); in [9], 0.125 µg/mL (≈ 0.0708 µM); in experiment [10] it was 0.03125 µg/mL (≈ 0.0177 µM); in [11] (setting [16]), 1 µg/mL (≈ 0.567 µM). Further, the MIC in experiment [11] (setting [17]) is 1 µg/mL (≈ 0.567 µM); in experiment [12] it was 0.0625 µg/mL (≈ 0.0354 µM); in experiment [13] it was 0.063 µg/mL (≈ 0.0357 µM); in experiment [14] it was not above 0.008 µg/mL; in experiment [15], 1 µg/mL.

On to `CCCCCCCCCCCCCCNC(N)=Nc1ccc(CN[C@@]2(C)C[C@H](O[C@H]3[C@H](Oc4c5cc6cc4Oc4ccc(cc4Cl)[C@@H](O)[C@@H](NC(=O)[C@@H](CC(C)C)NC)C(=O)N[C@@H](CC(N)=O)C(=O)N[C@H]6C(=O)N[C@H]4C(=O)N[C@H](C(=O)N[C@H](C(=O)O)c6cc(O)cc(O)c6-c6cc4ccc6O)[C@H](O)c4ccc(c(Cl)c4)O5)O[C@H](CO)[C@@H](O)[C@@H]3O)O[C@@H](C)[C@H]2O)cc1` [Compound 10], for which the MIC worked out at 1 µg/mL (≈ 0.558 µM) in [1]; 2 µg/mL (≈ 1.12 µM) in [2]; 2 µg/mL (≈ 1.12 µM) in [3]; 4 µg/mL (≈ 2.23 µM) in experiment [4]; 8 µg/mL (≈ 4.46 µM) in experiment [5]; 0.5 µg/mL (≈ 0.279 µM) in [6]. Moreover, the MIC in experiment [7] (MRSA USA300, TSB + 0.002% p80) amounted to 4 µg/mL; in experiment [7] (S. aureus USA300 MRSA), 4 µg/mL (≈ 2.23 µM); in [8], 0.5 µg/mL (≈ 0.279 µM); in experiment [9] it was 0.5 µg/mL (≈ 0.279 µM); in experiment [10] it was 0.5 µg/mL (≈ 0.279 µM); in experiment [11] (setting [16]), 2 µg/mL (≈ 1.12 µM). Further, the MIC in experiment [11] (setting [17]) was 2 µg/mL (≈ 1.12 µM); in experiment [12], 1 µg/mL (≈ 0.558 µM); in [13], 1 µg/mL (≈ 0.558 µM); in experiment [14] it was 0.031 µg/mL (≈ 0.0173 µM); in [15], 16 µg/mL.

Consider `CCCCN(CCCC)C(N)=Nc1ccc(CN[C@@]2(C)C[C@H](O[C@H]3[C@H](Oc4c5cc6cc4Oc4ccc(cc4Cl)[C@@H](O)[C@@H](NC(=O)[C@@H](CC(C)C)NC)C(=O)N[C@@H](CC(N)=O)C(=O)N[C@H]6C(=O)N[C@H]4C(=O)N[C@H](C(=O)N[C@H](C(=O)O)c6cc(O)cc(O)c6-c6cc4ccc6O)[C@H](O)c4ccc(c(Cl)c4)O5)O[C@H](CO)[C@@H](O)[C@@H]3O)O[C@@H](C)[C@H]2O)cc1` [Compound 11], for which the MIC in experiment [1] was 64 µg/mL (≈ 37.5 µM); in experiment [2], 0.125 µg/mL (≈ 0.0732 µM); in experiment [3] it was 1 µg/mL (≈ 0.585 µM); in experiment [4] it was 0.5 µg/mL (≈ 0.293 µM); in experiment [5], 0.063 µg/mL (≈ 0.0369 µM); in [6] it was 16 µg/mL (≈ 9.36 µM). Also, the MIC in experiment [7] (MRSA USA300, TSB + 0.002% p80) is 0.125 µg/mL; in experiment [7] (S. aureus USA300 MRSA), 0.125 µg/mL (≈ 0.0732 µM); in experiment [8] it was 0.0625 µg/mL (≈ 0.0366 µM); in [9], 32 µg/mL (≈ 18.7 µM); in experiment [10], 0.5 µg/mL (≈ 0.293 µM); in experiment [11] (setting [16]), more than 128 µg/mL. The MIC was more than 128 µg/mL in experiment [11] (setting [17]); 8 µg/mL (≈ 4.68 µM) in experiment [12]; 8 µg/mL (≈ 4.68 µM) in [13]; 0.063 µg/mL (≈ 0.0369 µM) in experiment [14]; 0.063 µg/mL in experiment [15].

As to `CCCCCCCCCCN(CCCCCCCCCC)C(N)=Nc1ccc(CN[C@@]2(C)C[C@H](O[C@H]3[C@H](Oc4c5cc6cc4Oc4ccc(cc4Cl)[C@@H](O)[C@@H](NC(=O)[C@@H](CC(C)C)NC)C(=O)N[C@@H](CC(N)=O)C(=O)N[C@H]6C(=O)N[C@H]4C(=O)N[C@H](C(=O)N[C@H](C(=O)O)c6cc(O)cc(O)c6-c6cc4ccc6O)[C@H](O)c4ccc(c(Cl)c4)O5)O[C@H](CO)[C@@H](O)[C@@H]3O)O[C@@H](C)[C@H]2O)cc1` [Compound 13], the MIC was 8 µg/mL (≈ 4.26 µM) in experiment [1]; 16 µg/mL (≈ 8.52 µM) in [2]; 16 µg/mL (≈ 8.52 µM) in experiment [3]; 32 µg/mL (≈ 17 µM) in [4]; 16 µg/mL (≈ 8.52 µM) in [5]; 8 µg/mL (≈ 4.26 µM) in experiment [6]. The MIC turned out to be 16 µg/mL in experiment [7] (MRSA USA300, TSB + 0.002% p80); 16 µg/mL (≈ 8.52 µM) in experiment [7] (S. aureus USA300 MRSA); 4 µg/mL (≈ 2.13 µM) in [8]; 8 µg/mL (≈ 4.26 µM) in experiment [9]; 4 µg/mL (≈ 2.13 µM) in experiment [10]; 32 µg/mL (≈ 17 µM) in experiment [11] (setting [16]). In addition, the MIC turned out to be 32 µg/mL (≈ 17 µM) in [11] (setting [17]); 4 µg/mL (≈ 2.13 µM) in [12]; 4 µg/mL (≈ 2.13 µM) in experiment [13]; 2 µg/mL (≈ 1.07 µM) in experiment [14]; 64 µg/mL in [15].
